This test relates to IL-1β secretion in THP-1 cells (NLRP3). Put plainly: IL-1β secretion assay in PMA-differentiated THP-1 cells stimulated with LPS and nigericin (ELISA readout). The conditions noted are these: IL-1β ELISA. Format: cell-based. The procedure:
Compounds as provided herein were tested in the following assay. Cell culture medium employed contained RPMI 1640 medium (89%), FBS (10%), Pen/Strep (1%), and 2-mercaptoethanol (0.05 mM). Freezing medium was made up of 90% FBS and 10% DMSO. THP-1 cells were removed from the liquid nitrogen and placed into a 37° C. water bath to thaw, until signs of ice dissipated. The cells were then added to 9 mL of warm cell culture medium and centrifuged for 5 minutes at 1000 rpm. The supernatant was discarded, and the cells were resuspended in new cell culture medium. THP-1 cells were then split and cultured in the cell culture medium, being passaged every 2-3 days with the cell density will be maintained between 5×10^5 and 1.5×10^6 viable cells/mL.
To freeze, cells were resuspended with fresh freezing medium, adjusting the cell density to 5×10^6 cells/mL. The cell suspension was partitioned into 1 mL aliquots per vial, and the vials were transferred to a −80° C. freezer. After one day at −80° C., the cell vials were transferred to liquid nitrogen freezer for storage.
PMA was dissolved in DMSO to make a stock solution at 5 mg/ml and stored in 10 μl aliquots at −20° C. for single use. PMA is added to normal growth medium. LPS was diluted with 1 mL of water solution to provide a 1 mg/mL stock solution and stored in 15 μl aliquots at −20° C. for single use. Nigericin is diluted in ice cold 100% ethanol to 5 mg/ml (6.7 mM) and stored in 75 μL aliquots at −20° C. for single use. Serum-free media contains RPMI 1640 medium (99%), Pen/Strep (1%), and 2-mercaptoethanol (0.05 mM). The two control conditions used to qualify and normalize test compound dose-response curves were as follows: High Control=25 ng/mL LPS, […], 0.5% DMSO, Low Control=25 ng/mL, LPS, 0.5% DMSO.
THP-1 cells were diluted to provide a suspension at a concentration of 1.0×10^6 cells/mL with the total volume of suspension required to enable the desired number of assay plates. The growth media was supplemented with PMA (5 ng/mL final concentration) and the cells were incubated at 37° C. under a humidified atmosphere of 5% CO2 for 40 h.
All media was carefully aspirated from each culture flask. The cells were washed carefully with 1×DPBS. The cells were then briefly digested with trypsin LE for 5 minutes at 23° C. and immediately resuspended in cell growth media. After resuspension, the cells were centrifuged at 1000 rpm for 3 minutes and the supernatant was discarded. The cells were resuspended in DPBS and once again centrifuged at 1000 rpm for 5 minutes. The supernatant was discarded and the cell pellet was resuspended in serum-free media supplemented with LPS (25 ng/mL final concentration) to enable the distribution of 30K THP-1 cells within 45 μL of media into each well of 384-well PDL-coated plates. The 384-well plates were then incubated at 37° C. under a humidified atmosphere of 5% CO2 for 2 h. Following this period, test compounds were dispensed by Tecan across the desired concentration range with all wells normalized to a final 0.5% DMSO concentration. The plates were then then incubated at 37° C. under a humidified atmosphere of 5% CO2 for 1 h. Following this period, 5 μL of the 5 mg/mL nigericin stock solution was added to each of the appropriate wells and plates were centrifuged at 1000 rpm for 30 seconds. The plates were the immediately reintroduced to the incubator at 37° C. under a humidified atmosphere of 5% CO2 for 2 h. After this time, 35 μL/well of supernatant was collected and transferred into v-bottom plate and centrifuged at 1000 rpm for 1 minute. These supernatant aliquots were analyzed using an IL-Iβ detection kit as described below. If needed, the test samples could be snap frozen and stored at −80° C. until analyzed.
To prepare each ELISA plate, capture antibody (mAb Mt175) was diluted with PBS to a final concentration of […] and then 20 µL of this solution was added to each well of the ELISA plate.
Each plate was allowed to incubate overnight at 4° C. […]
In general terms: An ELISA detects its analyte on a solid surface through an enzyme-linked reagent.

The mark [1] stands for this setting: Homo sapiens, THP-1, Table 3, LPS 25 ng/mL + nigericin, read-out: Activity (IC50 class).
[2] abbreviates: Homo sapiens, THP-1, Table 4, LPS 25 ng/mL + nigericin, read-out: Activity (IC50).
[3] abbreviates: Table 4, LPS 25 ng/mL + nigericin, read-out: Activity (IC50).
The mark [4] stands for this setting: Table 3, LPS 25 ng/mL + nigericin, read-out: Activity (IC50 class).

These results are taken from patent US20250145592A1 (NICO Therapeutics, Inc., priority 2022, published 2025).

Where two headings read alike, the source gives them in different places.

One may read the IC50 as the concentration that gives 50% inhibition.

Take `O=C(Cn1nc(OC2CC3(CC3)C2)c2cc(Br)ccc2c1=O)Nc1ncc(Cl)cn1` [Example 41, 2-(6-bromo-1-oxo-4-spiro[2.3]hexan-5-yloxyphthalazin-2-yl)-N-(5-chloropyrimidin-2-yl)acetamide]: the IC50 runs as follows: under setting [1], under 1000 nM; under setting [2], 52 nM.
For `O=C(Cn1nc(OC2CC3(C2)CC(F)(F)C3)c2cc(Br)ccc2c1=O)Nc1ncc(F)cn1` [Example 1, 2-[6-bromo-4-(2,2-difluorospiro[3.3]heptan-6-yl)oxy-1-oxophthalazin-2-yl]-N-(5-fluoropyrimidin-2-yl)acetamide], the IC50 is under 1000 nM under setting [1] and 10 nM under setting [2].
Regarding `Cc1cnc(NC(=O)Cn2nc(OC3CC3)c3cc(Br)ccc3c2=O)nn1` [Example 38, 2-(6-bromo-4-cyclopropyloxy-1-oxophthalazin-2-yl)-N-(6-methyl-1,2,4-triazin-3-yl)acetamide], the half-maximal inhibitory concentration (IC50) is under 1000 nM under setting [1] and 444 nM under setting [2].
On to `C[C@]1(O)C[C@@H](NC(=O)Cn2nc(OC3CC4(C3)CC4(F)F)c3cc(Br)ccc3c2=O)C1` (single isomer, unassigned) [Example 19, 2-[6-bromo-4-(2,2-difluorospiro[2.3]hexan-5-yl)oxy-1-oxophthalazin-2-yl]-N-(cis-3-hydroxy-3-methylcyclobutyl)acetamide], for which the IC50 is under 1000 nM under setting [1] and 179 nM under setting [3].
In the same order, the values of `C[C@@H]1CC1Oc1nn(CC(=O)Nc2ncc(F)cn2)c(=O)c2ccc(Br)cc12` (single isomer, unassigned) [Example 2, 2-[6-bromo-4-[2-trans-methylcyclopropyl]oxy-1-oxophthalazin-2-yl]-N-(5-fluoropyrimidin-2-yl)acetamide] are under 1000 nM and 202 nM.
`O=C(Cn1nc(OC2CC2)c2cc(OC(F)F)ccc2c1=O)Nc1ncc(F)cn1` [Example 37, 2-[4-cyclopropyloxy-6-(difluoromethoxy)-1-oxophthalazin-2-yl]-N-(5-fluoropyrimidin-2-yl)acetamide]: the IC50 is, setting by setting: under setting [1], under 1000 nM; under setting [2], 424 nM.
Regarding `O=C(Cn1nc(OC2CC2(F)F)c2cc(Br)ccc2c1=O)Nc1ncc(F)cn1` (single isomer, unassigned) [Example 17, 2-[6-bromo-4-[2,2-difluorocyclopropyl]oxy-1-oxophthalazin-2-yl]-N-(5-fluoropyrimidin-2-yl)acetamide], the IC50 under setting [1] is under 1000 nM and the IC50 under setting [3] is 70 nM.
As for `O=C(Cn1nc(OC2CC3(C2)CC3(F)F)c2cc(Br)ccc2c1=O)Nc1nc2ccccn2n1` (single isomer, unassigned) [Example 26, 2-[6-bromo-4-(2,2-difluorospiro[2.3]hexan-5-yl)oxy-1-oxophthalazin-2-yl]-N-([1,2,4]triazolo[1,5-a]pyridin-2-yl)acetamide], the 50% inhibitory concentration (IC50) reads like this: under setting [4], under 1000 nM; under setting [3], 596 nM.
On to `O=C(Cn1nc(OC2CC2(F)F)c2cc(Br)ccc2c1=O)Nc1ncc(F)cn1` (single isomer, unassigned) [Example 18, 2-[6-bromo-4-[2,2-difluorocyclopropyl]oxy-1-oxophthalazin-2-yl]-N-(5-fluoropyrimidin-2-yl)acetamide], for which the 50% inhibitory concentration (IC50) under setting [4] lay in the range of 1000 to 10000 nM and the IC50 under setting [3] was 1510 nM.
Take `CC[C@@H]1CC1Oc1nn(CC(=O)Nc2ncc(F)cn2)c(=O)c2ccc(Br)cc12` (single isomer, unassigned) [Example 36, 2-[6-bromo-4-[cis-2-ethylcyclopropyl]oxy-1-oxophthalazin-2-yl]-N-(5-fluoropyrimidin-2-yl)acetamide]: the concentration for half-maximal inhibition (IC50) is, setting by setting: under setting [4], under 1000 nM; under setting [3], 397 nM.
As for `N#Cc1cnc(NC(=O)Cn2nc(OC3CC4(CC4)C3)c3cc(Br)ccc3c2=O)nc1` [Example 30, 2-(6-bromo-1-oxo-4-spiro[2.3]hexan-5-yloxyphthalazin-2-yl)-N-(5-cyanopyrimidin-2-yl)acetamide], the half-maximal inhibitory concentration (IC50) was under 1000 nM under setting [1] and 50 nM under setting [2].
`Cc1cnc(NC(=O)Cn2nc(OC3C[C@H]3C)c3cc(Br)ccc3c2=O)nc1` (single isomer, unassigned) [Example 10, 2-[6-bromo-4-[trans-2-methylcyclopropyl]oxy-1-oxophthalazin-2-yl]-N-(5-methylpyrimidin-2-yl)acetamide]: the concentration for half-maximal inhibition (IC50) reads like this: under setting [4], under 1000 nM; under setting [3], 141 nM.
